This note sets out measurements from ChEMBL document CHEMBL5625191, “A review of progress in o-aminobenzamide-based HDAC inhibitors with dual targeting capabilities for cancer therapy” (Eur J Med Chem, 2023).

In test [1] the test system is HCT-116. The test can be described thus: Antitumor activity against human HCT-116 cells xenografted in BALB/c mouse assessed tumor growth inhibition at 150 mg/kg, po bid measured for every 3 days. Type of test: functional. The following applies: HCT-116, 72 h, time 3 day, read-out: TGI.
Test [2] concerns MCF7. The test can be described thus: Antiproliferative activity against human MCF7 cells assessed as inhibition of cell growth incubated for 48 hrs by CCK-8 assay. Type of test: functional, cell-based. The following applies: MCF7, 48 h. (In general: Tetrazolium assays rely on reduction of a dye to a coloured formazan, in cell work by metabolically active cells.)
In test [3] the target is T1, Histone deacetylase 1 (Homo sapiens, UniProt Q13547). The test can be described thus: Inhibition of HDAC1 in human HeLa nuclear extract using Boc-Lys(Ac)-AMC or Boc-Lys(Tfa)-AMC as substrate preincubated for 5 mins followed by substrate addition and measured after 30 mins by fluorescence assay. Type of test: cell-free.
Test [4] concerns HCT-116. The test can be described thus: Antiproliferative activity against human HCT-116 cells assessed as inhibition of cell growth incubated for 48 hrs by MTT assay. Type of test: functional, cell-based. The following applies: HCT-116, 48 h.
Test [5] relates to HCT-116. The test can be described thus: Antitumor activity against human HCT-116 cells xenografted in BALB/c nude mouse assessed as tumor growth inhibition at 30 mg/kg, po administered for 3 days. In kind it is functional. The following applies: HCT-116, 72 h, time 3 day, read-out: TGI. In general terms: Xenograft models place foreign cells or tissue in a host animal.
The next test concerns Jurkat. The test can be described thus: Antiproliferative activity against human Jurkat cells assessed as inhibition of cell growth incubated for 48 hrs by MTT assay. In kind it is functional, cell-based.
For test [6], the system named is A549. The test can be described thus: Antiproliferative activity against human A549 cells assessed as inhibition of cell growth incubated for 48 hrs by MTT assay. The following applies: A549, 48 h. In kind it is functional, cell-based.
Test [7] has as its target T2, Histone deacetylase 3 (Homo sapiens, UniProt O15379). The test can be described thus: Inhibition of HDAC3 in human HeLa nuclear extract using Boc-Lys(Ac)-AMC or Boc-Lys(Tfa)-AMC as substrate preincubated for 5 mins followed by substrate addition and measured after 30 mins by fluorescence assay. Type of test: cell-free.
The next test relates to HEL. The test can be described thus: Antiproliferative activity against human HEL cells assessed as inhibition of cell growth incubated for 48 hrs by MTT assay. Type of test: functional, cell-based.
The subject of the next test is HeLa. The test can be described thus: Antiproliferative activity against human HeLa cells assessed as inhibition of cell growth incubated for 48 hrs by MTT assay. In kind it is functional, cell-based.
In the next test the test system is MOLT-4. The test can be described thus: Antiproliferative activity against human MOLT-4 cells assessed as inhibition of cell growth incubated for 48 hrs by MTT assay. In kind it is functional, cell-based. The following applies: MOLT-4, 48 h.
For another test, the system named is PC-3. The test can be described thus: Antiproliferative activity against human PC-3 cells assessed as inhibition of cell growth incubated for 48 hrs by MTT assay. In kind it is functional, cell-based. The following applies: PC-3, 48 h.
For test [8], the system named is HCT-116. The test can be described thus: Antitumor activity against human HCT-116 cells xenografted in BALB/c nude mouse assessed as increase in increment ratio at 30 mg/kg, po administered for 3 days. Type of test: functional. The following applies: time 3 day.
The target in test [9] is T3, Histone deacetylase 2 (Homo sapiens, UniProt Q92769). The test can be described thus: Inhibition of HDAC2 in human HeLa nuclear extract using Boc-Lys(Ac)-AMC or Boc-Lys(Tfa)-AMC as substrate preincubated for 5 mins followed by substrate addition and measured after 30 mins by fluorescence assay. In kind it is cell-free.
Test [10] relates to A549. The test can be described thus: Antiproliferative activity against human A549 cells assessed as inhibition of cell growth incubated for 72 hrs by CCK-8 assay. Type of test: functional, cell-based. The following applies: A549, 72 h.
For another test, the system named is NCI-H2228. The test can be described thus: Antiproliferative activity against human NCI-H2228 cells assessed as inhibition of cell growth incubated for 72 hrs by CCK-8 assay. The following applies: NCI-H2228, 72 h. Type of test: functional, cell-based.
The next test deals with SK-N-BE(2). The test can be described thus: Antiproliferative activity against human SK-N-BE(2) cells assessed as inhibition of cell growth incubated for 72 hrs by CCK-8 assay. In kind it is functional, cell-based. The following applies: SKNBE2, 72 h.
The subject of another test is HepG2. The test can be described thus: Antiproliferative activity against human HepG2 cells assessed as inhibition of cell growth incubated for 72 hrs by CCK-8 assay. In kind it is functional, cell-based. The following applies: HepG2, 72 h.
The test system of test [11] is HCT-116. The test can be described thus: Antiproliferative activity against human HCT-116 cells assessed as inhibition of cell growth. Type of test: functional, cell-based.
In test [12] the target is T3, Histone deacetylase 2. The test can be described thus: Inhibition of HDAC2 (unknown origin).
In test [13] the target is T1, Histone deacetylase 1. The test can be described thus: Inhibition of HDAC1 (unknown origin).
The test system of a further test is SK-MEL-1. The test can be described thus: Antitumor activity against human SK-MEL-1 cells assessed as tumor growth inhibition at 30 mg/kg, ip administered for 28 days. In kind it is functional. The following applies: SK-MEL-1, 672 h, time 28 day, read-out: TGI.
Test [14] is described as follows: Antiproliferative activity against human MET-1 cells assessed as inhibition of cell growth. Type of test: functional, cell-based.
Test [15] can be described thus: Antiproliferative activity against human SCCIC1 cells assessed as inhibition of cell growth. In kind it is functional, cell-based.
Test [16] has as its target Bromodomain-containing protein 4 (Homo sapiens, UniProt O60885). The test can be described thus: Inhibition of BRD4 BD1 (unknown origin).
Test [17] has as its target Histone deacetylase (Homo sapiens) (UniProt Q13547+O15379+Q9UBN7+Q92769+Q9UQL6+Q8WUI4+Q9BY41+Q96DB2+P56524+Q9UKV0+Q969S8). The test can be described thus: Inhibition of HDAC in human RPMI-8226 cells at 10 uM incubated for 8 hrs relative to control. In kind it is cell-based.
A short description of test [18]: Antiproliferative activity against human Bortezomib-resistant RPMI-8226 cells assessed as inhibition of cell growth incubated for 72 hrs by XTT assay. The following applies: Bortezomib-resistant RPMI-8226, 72 h. Type of test: functional, cell-based.
The next test concerns RPMI-8226. The test can be described thus: Antiproliferative activity against human RPMI-8226 cells assessed as inhibition of cell growth incubated for 72 hrs by XTT assay. In kind it is functional, cell-based. The following applies: RPMI-8226, 72 h.
For test [19], the target named is Histone deacetylase. The test can be described thus: Inhibition of HDAC (unknown origin). Type of test: protein assay, Homo sapiens.
Test [20] relates to A549. The test can be described thus: Antiproliferative activity against human A549 cells assessed as inhibition of cell growth incubated for 48 hrs by CCK-8 assay. Type of test: functional, cell-based. The following applies: A549, 48 h.
The next test deals with CT26. The test can be described thus: Antitumor activity against mouse CT26 cells xenografted in mouse assessed as reduction in tumor volume. Details: scale not given: the % may be the effect or the level left. In kind it is functional.
For test [21], the target named is T1, Histone deacetylase 1. The test can be described thus: Inhibition of full length C-terminal his6-tagged human recombinant HDAC1 (1 to 482 residues) expressed in Sf9 cells using fluorogenic Boc-Lys(Ac)-AMC as substrate incubated for 90 mins by Synergy H1 plate reader analysis.
Test [22] has as its target T3, Histone deacetylase 2. The test can be described thus: Inhibition of full length C-terminal FLAG-tagged human recombinant HDAC2 (1 to 488 residues) expressed in Sf9 cells using fluorogenic Boc-Lys(Ac)-AMC as substrate incubated for 90 mins by Synergy H1 plate reader analysis.
Test [23] deals with T2, Histone deacetylase 3. The test can be described thus: Inhibition of C-terminl his-tagged human recombinant HDAC3 (1 to 428 residues) expressed in Sf9 cells using fluorogenic Boc-Lys(Ac)-AMC as substrate incubated for 90 mins by Synergy H1 plate reader analysis.
In test [24] the target is Macrophage migration inhibitory factor (Homo sapiens, UniProt P14174). The test can be described thus: Inhibition of MIF (unknown origin) tautomerase activity incubated for 10 mins by microplate reader analysis.
Test [25] has as its system MCF7. The test can be described thus: Antiproliferative activity against human MCF7 cells assessed as inhibition of cell growth incubated for 48 hrs by MTT assay. In kind it is functional, cell-based. The following applies: MCF7, 48 h.
The target in a further test is Ephrin type-A receptor 2 (Homo sapiens, UniProt P29317). The test can be described thus: Inhibition of EphA2 (unknown origin) incubated for 30 mins by TR-FRET assay. Background: TR-FRET usually uses a lanthanide donor and a delayed reading to cut background.
For test [26], the target named is Histone deacetylase. The test can be described thus: Inhibition of HDAC in human HeLa nuclear extract using Boc-Lys(Ac)-AMC or Boc-Lys(Tfa)-AMC as substrate preincubated for 5 mins followed by substrate addition and measured after 30 mins by fluorescence assay. Type of test: cell-free.

SMILES strings stand for the structures.

T1 sequence (Q13547 whole entry): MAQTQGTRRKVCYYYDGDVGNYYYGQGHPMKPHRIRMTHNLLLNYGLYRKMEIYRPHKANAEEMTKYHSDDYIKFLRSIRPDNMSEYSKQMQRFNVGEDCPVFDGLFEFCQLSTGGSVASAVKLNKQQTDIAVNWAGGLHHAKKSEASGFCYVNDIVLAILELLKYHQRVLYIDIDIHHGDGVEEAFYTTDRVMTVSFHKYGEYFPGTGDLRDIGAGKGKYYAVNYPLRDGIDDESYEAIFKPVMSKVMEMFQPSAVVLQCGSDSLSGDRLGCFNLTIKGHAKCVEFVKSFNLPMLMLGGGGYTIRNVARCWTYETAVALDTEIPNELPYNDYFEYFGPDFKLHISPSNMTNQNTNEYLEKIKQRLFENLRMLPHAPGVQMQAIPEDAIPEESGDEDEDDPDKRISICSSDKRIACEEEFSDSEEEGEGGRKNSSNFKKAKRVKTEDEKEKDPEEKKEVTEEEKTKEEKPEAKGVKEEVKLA
T3 sequence (Q92769 whole entry): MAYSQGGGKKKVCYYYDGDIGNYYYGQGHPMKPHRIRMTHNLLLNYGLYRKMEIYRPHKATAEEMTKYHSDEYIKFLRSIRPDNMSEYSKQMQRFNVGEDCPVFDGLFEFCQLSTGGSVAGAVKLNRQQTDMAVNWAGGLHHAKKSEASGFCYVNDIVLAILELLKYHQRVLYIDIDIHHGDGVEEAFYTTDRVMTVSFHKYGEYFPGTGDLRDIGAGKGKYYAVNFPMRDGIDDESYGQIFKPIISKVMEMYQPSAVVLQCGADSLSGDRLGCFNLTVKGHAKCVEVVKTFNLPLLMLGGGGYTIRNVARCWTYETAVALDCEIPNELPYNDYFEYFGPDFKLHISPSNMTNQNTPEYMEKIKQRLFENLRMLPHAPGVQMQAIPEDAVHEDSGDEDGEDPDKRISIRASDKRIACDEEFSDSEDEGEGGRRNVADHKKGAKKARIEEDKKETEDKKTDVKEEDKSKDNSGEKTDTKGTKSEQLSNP
T2 sequence (O15379 whole entry): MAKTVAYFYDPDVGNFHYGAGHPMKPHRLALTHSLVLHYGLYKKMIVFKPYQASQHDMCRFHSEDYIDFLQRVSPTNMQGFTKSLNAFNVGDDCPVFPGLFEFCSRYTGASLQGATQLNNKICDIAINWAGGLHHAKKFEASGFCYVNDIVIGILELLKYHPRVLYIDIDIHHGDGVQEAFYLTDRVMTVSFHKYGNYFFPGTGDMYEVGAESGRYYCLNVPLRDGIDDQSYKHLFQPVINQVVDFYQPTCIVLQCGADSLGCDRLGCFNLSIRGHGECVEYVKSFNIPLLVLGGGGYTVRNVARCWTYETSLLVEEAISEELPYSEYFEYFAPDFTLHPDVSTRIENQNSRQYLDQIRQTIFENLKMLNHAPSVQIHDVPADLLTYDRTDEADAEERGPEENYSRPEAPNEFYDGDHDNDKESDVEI
Sequence of Ephrin type-A receptor 2 (P29317 whole entry): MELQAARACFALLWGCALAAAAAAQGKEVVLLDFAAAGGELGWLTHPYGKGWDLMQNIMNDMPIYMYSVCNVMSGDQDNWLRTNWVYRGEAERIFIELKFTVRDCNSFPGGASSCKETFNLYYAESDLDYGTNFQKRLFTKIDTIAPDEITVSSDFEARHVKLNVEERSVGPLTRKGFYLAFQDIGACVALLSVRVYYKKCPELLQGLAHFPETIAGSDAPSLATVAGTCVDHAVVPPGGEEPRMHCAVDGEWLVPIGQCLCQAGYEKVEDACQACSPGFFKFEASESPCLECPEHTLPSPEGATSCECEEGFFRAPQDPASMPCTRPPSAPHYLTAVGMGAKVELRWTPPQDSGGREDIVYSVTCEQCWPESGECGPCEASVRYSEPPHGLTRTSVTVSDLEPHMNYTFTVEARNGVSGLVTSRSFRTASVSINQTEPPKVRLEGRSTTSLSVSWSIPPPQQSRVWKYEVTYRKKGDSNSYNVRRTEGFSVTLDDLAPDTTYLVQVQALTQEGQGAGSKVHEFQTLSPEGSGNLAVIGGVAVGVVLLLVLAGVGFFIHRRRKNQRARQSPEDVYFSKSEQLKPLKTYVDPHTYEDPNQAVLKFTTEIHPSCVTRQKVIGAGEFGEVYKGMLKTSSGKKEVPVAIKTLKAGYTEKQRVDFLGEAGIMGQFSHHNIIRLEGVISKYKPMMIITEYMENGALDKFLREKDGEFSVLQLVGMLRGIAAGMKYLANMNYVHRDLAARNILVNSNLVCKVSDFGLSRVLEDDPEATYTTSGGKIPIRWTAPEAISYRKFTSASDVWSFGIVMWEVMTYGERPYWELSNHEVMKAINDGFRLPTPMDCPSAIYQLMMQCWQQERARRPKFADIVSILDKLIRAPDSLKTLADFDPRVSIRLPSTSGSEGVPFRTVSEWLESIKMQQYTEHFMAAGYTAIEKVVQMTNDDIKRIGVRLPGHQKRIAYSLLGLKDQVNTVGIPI
Sequence of Macrophage migration inhibitory factor (P14174 whole entry): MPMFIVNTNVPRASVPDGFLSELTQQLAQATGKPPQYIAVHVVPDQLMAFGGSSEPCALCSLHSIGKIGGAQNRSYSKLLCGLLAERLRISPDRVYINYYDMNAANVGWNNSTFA

As usually defined, the IC50 is the concentration that inhibits the measured activity by half. With `CN1c2ccccc2C(=O)N2[C@H](C(=O)Nc3ccc(C(=O)Nc4ccccc4N)cc3)Cc3c([nH]c4ccccc34)[C@@H]12`, the inhibition in vivo at 150 mg/kg in the test on HCT-116 [1] is 75.2%. Also, in the test with MCF7 [2], the IC50 turned out to be 18 nM.

A word on the T/C: it is the result in the treated group divided by that in the control group, in per cent. Regarding `Nc1ccccc1NC(=O)CCCCOc1no[n+]([O-])c1S(=O)(=O)c1ccccc1`, the IC50 at Histone deacetylase 1 [3] was found to be 620 nM; with HCT-116 [4] it was 930 nM; in the test on Jurkat it was 540 nM; in the test on A549 [6] it was 1030 nM; at Histone deacetylase 3 [7], 620 nM; in the test on HEL, 320 nM. The IC50 with HeLa was 1230 nM; in the test on MOLT-4, 590 nM; with PC-3, 2690 nM; against Histone deacetylase 2 [9], 1460 nM. Further, the inhibition in vivo at 30 mg/kg with HCT-116 [5] was found to be 36%. Moreover, the T/C in the test with HCT-116 [8] came to 57%.

On to `CC(C)S(=O)(=O)c1ccccc1Nc1nc(Nc2ccc(C(=O)Nc3ccccc3N)cc2)ncc1Cl`, for which the IC50 with A549 [10] worked out at 2 nM; in the test on NCI-H2228, 110 nM; in the test on SK-N-BE(2) it was 3 nM; in the test on HepG2, 10 nM.

Turning to `CN1c2ccc(NCc3ccc(C(=O)Nc4ccccc4N)cc3)cc2C(=O)N2CCc3c([nH]c4ccccc34)[C@H]21`, the IC50 in the test with HCT-116 [11] turned out to be 2760 nM; at Histone deacetylase 2 [12], 6250 nM; at Histone deacetylase 1 [13], 1510 nM.

For `Nc1ccccc1NC(=O)c1ccc(CCCC(=O)Nc2ccc([C@@H]3C[C@H]3N)cc2)cc1`, in the test on SK-MEL-1, the inhibition in vivo at 30 mg/kg amounted to 61%. Besides, the IC50 was determined as 6 nM in [14] and 41 nM in test [15].

In turn, `Cc1sc2c(c1C)C(c1ccc(Cl)cc1)=N[C@@H](CC(=O)Nc1ccc(C(=O)Nc3ccccc3N)cc1)c1nnc(C)n1-2` gave an IC50 in test [16] of 729 nM.

As a reminder, the inhibition is how much of the control response was suppressed. In turn, `CC(C)C[C@@H](NC(=O)[C@H](Cc1ccccc1)NC(=O)c1cnc(C(=O)Nc2ccccc2N)cn1)B1OC2CC3CC(C3(C)C)[C@@]2(C)O1` (some centres undefined) displayed an inhibition in [17] of 33%. Besides, the IC50 in test [18] was 158 nM; with RPMI-8226, 9.5 nM; at Histone deacetylase [19], 23.6 nM.

Take `Cn1cc(-c2ccc(S(=O)(=O)n3ccc(/C=C/C(=O)Nc4ccccc4N)c3)cc2)cn1` [DOMATINOSTAT]: the IC50 with A549 [20] came to 7.8 nM. Further, the Activity in the test on CT26 is recorded as 53%.

For `Nc1ccccc1NC(=O)c1ccc(NC(=O)Cc2ccc(N3Cc4ccc(O)cc4OC3=O)cc2)cc1`, the IC50 is 200 nM on Histone deacetylase 1 [21], 1100 nM at Histone deacetylase 2 [22], 600 nM at Histone deacetylase 3 [23] and 180 nM in test [24].

`COc1ccc(C(=O)Nc2ccc(NC(=O)Nc3ccccc3N)cc2)cc1`: the IC50 in the test on MCF7 [25] came out at 7420 nM; in the test on HCT-116 [4] it was 5290 nM; on Ephrin type-A receptor 2 it was 570 nM; at Histone deacetylase [26], 1520 nM.
